From PubChem BioAssay (NCI)
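Method: 48-hour compound exposure of cells in 96-well plates, five concentrations, linear interpolation of endpoints. GI50 is the concentration that inhibits growth by half. TGI: total growth inhibition.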

Legend:
Assay in all cases: inhibition of tumour cell growth, NCI panel, 48 h
HCT-15 colon = test system: HCT-15 colon
T-47D breast = test system: T-47D breast
RPMI-8226 leukemia = test system: RPMI-8226 leukemia
SF-539 CNS = test system: SF-539 CNS
HCT-116 colon = test system: HCT-116 colon
CCRF-CEM leukemia = test system: CCRF-CEM leukemia
COLO 205 colon = test system: COLO 205 colon
MOLT-4 leukemia = test system: MOLT-4 leukemia
SF-295 CNS = test system: SF-295 CNS
SK-MEL-28 melanoma = test system: SK-MEL-28 melanoma
NCI-H226 lung = test system: NCI-H226 lung
OVCAR-8 ovarian = test system: OVCAR-8 ovarian
TK-10 renal = test system: TK-10 renal
HOP-92 NSCLC = test system: HOP-92 NSCLC
MDA-MB-468 breast = test system: MDA-MB-468 breast
UACC-62 melanoma = test system: UACC-62 melanoma
UO-31 renal = test system: UO-31 renal
K-562 leukemia = test system: K-562 leukemia
A498 renal = test system: A498 renal
BT-549 breast = test system: BT-549 breast
MDA-MB-231 breast = test system: MDA-MB-231 breast
HCC-2998 colon = test system: HCC-2998 colon
M14 melanoma = test system: M14 melanoma
PC-3 prostate = test system: PC-3 prostate
ACHN renal = test system: ACHN renal
HL-60(TB) leukemia = test system: HL-60(TB) leukemia
IGROV1 ovarian = test system: IGROV1 ovarian
OVCAR-5 ovarian = test system: OVCAR-5 ovarian
CAKI-1 renal = test system: CAKI-1 renal
SNB-75 CNS = test system: SNB-75 CNS
HS 578T breast = test system: HS 578T breast
EKVX NSCLC = test system: EKVX NSCLC
SK-MEL-5 melanoma = test system: SK-MEL-5 melanoma
NCI-H522 lung = test system: NCI-H522 lung
NCI-H23 lung = test system: NCI-H23 lung
NCI/ADR-RES ovarian = test system: NCI/ADR-RES ovarian
SK-OV-3 ovarian = test system: SK-OV-3 ovarian
SK-MEL-2 melanoma = test system: SK-MEL-2 melanoma
SR leukemia = test system: SR leukemia
MCF7 breast = test system: MCF7 breast
A549 NSCLC = test system: A549 NSCLC
U251 CNS = test system: U251 CNS
SNB-19 CNS = test system: SNB-19 CNS
OVCAR-3 ovarian = test system: OVCAR-3 ovarian
SN12C renal = test system: SN12C renal
OVCAR-4 ovarian = test system: OVCAR-4 ovarian
HT29 colon = test system: HT29 colon
786-0 renal = test system: 786-0 renal
SF-268 CNS = test system: SF-268 CNS
NCI-H460 lung = test system: NCI-H460 lung
RXF 393 renal = test system: RXF 393 renal
SW-620 colon = test system: SW-620 colon
MALME-3M melanoma = test system: MALME-3M melanoma
UACC-257 melanoma = test system: UACC-257 melanoma
DU-145 prostate = test system: DU-145 prostate
HOP-62 NSCLC = test system: HOP-62 NSCLC

## O=C(Nc1ccc(OCC(=O)c2ccccc2)cc1)Nc1ccc(Cl)c(C(F)(F)F)c1
HCT-15 colon
  GI50: 2.92 µM
  TGI: > 100 µM
T-47D breast
  GI50: 3.13 µM
  TGI: > 100 µM
RPMI-8226 leukemia
  GI50: 3.51 µM
  TGI: > 100 µM
SF-539 CNS
  GI50: 3.28 µM
  TGI: 12.8 µM
HCT-116 colon
  GI50: 3.69 µM
  TGI: > 100 µM
CCRF-CEM leukemia
  GI50: 3.54 µM
  TGI: > 100 µM
COLO 205 colon
  GI50: 4.32 µM
  TGI: > 100 µM
MOLT-4 leukemia
  GI50: 2.48 µM
  TGI: > 100 µM
SF-295 CNS
  GI50: 2.74 µM
  TGI: 13.5 µM
SK-MEL-28 melanoma
  GI50: 2.97 µM
  TGI: 25.8 µM
NCI-H226 lung
  GI50: 3.73 µM
  TGI: > 100 µM
OVCAR-8 ovarian
  GI50: 4.31 µM
  TGI: > 100 µM
TK-10 renal
  GI50: 6.25 µM
  TGI: 40.3 µM
HOP-92 NSCLC
  GI50: 3.48 µM
  TGI: 17.5 µM
MDA-MB-468 breast
  GI50: 2.41 µM
  TGI: 7.05 µM
UACC-62 melanoma
  GI50: 2.26 µM
  TGI: 6.2 µM
UO-31 renal
  GI50: 3.18 µM
  TGI: > 100 µM
K-562 leukemia
  GI50: 3.66 µM
  TGI: > 100 µM
A498 renal
  GI50: 3.59 µM
  TGI: 18.2 µM
BT-549 breast
  GI50: 11.5 µM
  TGI: > 100 µM
MDA-MB-231 breast
  GI50: 2.87 µM
  TGI: 11.4 µM
HCC-2998 colon
  GI50: 3.37 µM
  TGI: > 100 µM
M14 melanoma
  GI50: 2.97 µM
  TGI: > 100 µM
PC-3 prostate
  GI50: 2.83 µM
  TGI: > 100 µM
ACHN renal
  GI50: 3.17 µM
  TGI: > 100 µM
HL-60(TB) leukemia
  GI50: 3 µM
  TGI: 40.2 µM
IGROV1 ovarian
  GI50: 4.38 µM
  TGI: > 100 µM
OVCAR-5 ovarian
  GI50: 5.28 µM
  TGI: > 100 µM
CAKI-1 renal
  GI50: 3.31 µM
  TGI: > 100 µM
SNB-75 CNS
  GI50: 2.27 µM
  TGI: 19.9 µM
HS 578T breast
  GI50: 3.51 µM
  TGI: 31.1 µM
EKVX NSCLC
  GI50: 3.26 µM
  TGI: > 100 µM
SK-MEL-5 melanoma
  GI50: 2.87 µM
  TGI: 9.54 µM
NCI-H522 lung
  GI50: 1.96 µM
  TGI: 6.15 µM
NCI-H23 lung
  GI50: 3.28 µM
  TGI: 48.9 µM
NCI/ADR-RES ovarian
  GI50: 3.45 µM
  TGI: > 100 µM
SK-OV-3 ovarian
  GI50: 8.74 µM
  TGI: 60.7 µM
SK-MEL-2 melanoma
  GI50: 2.07 µM
  TGI: 4.8 µM
SR leukemia
  GI50: 2.52 µM
  TGI: > 100 µM
MCF7 breast
  GI50: 3.37 µM
  TGI: > 100 µM
A549 NSCLC
  GI50: 3.64 µM
  TGI: > 100 µM
U251 CNS
  GI50: 2.95 µM
  TGI: 12.8 µM
SNB-19 CNS
  GI50: 3.16 µM
  TGI: > 100 µM
OVCAR-3 ovarian
  GI50: 2.76 µM
  TGI: > 100 µM
SN12C renal
  GI50: 3.18 µM
  TGI: > 100 µM
OVCAR-4 ovarian
  GI50: 4.39 µM
  TGI: > 100 µM
HT29 colon
  GI50: 3.34 µM
  TGI: > 100 µM
786-0 renal
  GI50: 4.12 µM
  TGI: 32.5 µM
SF-268 CNS
  GI50: 3.51 µM
  TGI: > 100 µM
NCI-H460 lung
  GI50: 3.07 µM
  TGI: > 100 µM
RXF 393 renal
  GI50: 2.78 µM
  TGI: 14.3 µM
SW-620 colon
  GI50: 3.74 µM
  TGI: > 100 µM
MALME-3M melanoma
  GI50: 3.11 µM
  TGI: > 100 µM
UACC-257 melanoma
  GI50: 3.78 µM
  TGI: > 100 µM
DU-145 prostate
  GI50: 6.81 µM
  TGI: > 100 µM
HOP-62 NSCLC
  GI50: 5.76 µM
  TGI: 35.2 µM
